According to the NIST ThermoML archive (doi:10.1021/je050540h):
Numbers after ± are expanded uncertainties.

Test: xn = mol fraction of the nth substance listed
Conditions: 101 kPa, Liquid

C1CCCC1 [cyclopentane] + CCC(C)O
Conditions	mass density, 293.15 K [kg/m3]	mass density, 298.15 K [kg/m3]	mass density, 303.15 K [kg/m3]	speed of sound, 293.15 K [m/s]	speed of sound, 298.15 K [m/s]	speed of sound, 303.15 K [m/s]	viscosity, 293.15 K [mPa·s]	viscosity, 298.15 K [mPa·s]	viscosity, 303.15 K [mPa·s]
x1 = 0.0445	803.52 ± 0.48	799.33 ± 0.49	795.05 ± 0.49	1225 ± 3	1207 ± 3	1188 ± 3	3.152 ± 0.074	2.621 ± 0.063	2.194 ± 0.053
x1 = 0.1036	799.5 ± 0.49	795.2 ± 0.5	790.81 ± 0.5	1219 ± 3	1200 ± 3	1181 ± 3	2.649 ± 0.063	2.231 ± 0.053	1.898 ± 0.046
x1 = 0.1872	793.75 ± 0.51	789.32 ± 0.51	784.79 ± 0.52	1212 ± 3	1192 ± 3	1172 ± 3	2.121 ± 0.051	1.811 ± 0.044	1.56 ± 0.038
x1 = 0.2856	787.01 ± 0.53	782.42 ± 0.53	777.74 ± 0.54	1204 ± 3	1183 ± 3	1162 ± 3	1.604 ± 0.039	1.393 ± 0.034	1.219 ± 0.03
x1 = 0.3938	779.61 ± 0.55	774.87 ± 0.55	770.05 ± 0.56	1197 ± 3	1175 ± 3	1153 ± 3	1.194 ± 0.03	1.054 ± 0.027	0.94 ± 0.024
x1 = 0.4873	773.26 ± 0.56	768.43 ± 0.57	763.52 ± 0.57	1193 ± 3	1170 ± 3	1148 ± 3	0.946 ± 0.024	0.85 ± 0.022	0.77 ± 0.02
x1 = 0.6179	764.92 ± 0.58	760.01 ± 0.59	755.02 ± 0.6	1191 ± 3	1167 ± 3	1144 ± 3	0.692 ± 0.019	0.636 ± 0.017	0.588 ± 0.016
x1 = 0.7034	759.79 ± 0.6	754.84 ± 0.6	749.82 ± 0.61	1193 ± 3	1169 ± 3	1145 ± 3	0.61 ± 0.017	0.569 ± 0.016	0.531 ± 0.015
x1 = 0.8115	753.71 ± 0.62	748.71 ± 0.62	743.64 ± 0.63	1200 ± 3	1175 ± 3	1151 ± 3	0.517 ± 0.015	0.485 ± 0.014	0.455 ± 0.013
x1 = 0.9113	748.61 ± 0.63	743.57 ± 0.64	738.46 ± 0.64	1211 ± 3	1186 ± 3	1161 ± 3	0.468 ± 0.013	0.441 ± 0.013	0.416 ± 0.012
x1 = 0.9506	746.74 ± 0.64	741.7 ± 0.64	736.6 ± 0.65	1218 ± 3	1192 ± 3	1167 ± 3	0.451 ± 0.013	0.426 ± 0.013	0.403 ± 0.012
x1 = 1	744.52 ± 0.65	739.55 ± 0.65	734.54 ± 0.66	1232 ± 3	1206 ± 3	1180 ± 3	0.438 ± 0.013	0.416 ± 0.012	0.394 ± 0.012

CCC(C)O (configuration not stated) [butan-2-ol] + C1CCCC1
x2 = 0
Conditions	mass density [kg/m3]	speed of sound [m/s]	viscosity [mPa·s]
293.15 K	806.84 ± 0.47	1230 ± 3	3.623 ± 0.084
298.15 K	802.72 ± 0.48	1212 ± 3	2.995 ± 0.071
303.15 K	798.51 ± 0.48	1194 ± 3	2.493 ± 0.06
